Experimental data from ChEMBL document CHEMBL2073928, “Overlapping substrate specificities and tissue distribution of cytochrome P450 3A and P-glycoprotein: implications for drug delivery and activity in cancer chemotherapy” (Mol Carcinog, 1995).

Columns and labels:
Assay type in all cases: functional, organism-based
[1] = molecular target: Multidrug resistance protein 1a (Rattus norvegicus) (UniProt Q6PSM0); assay: (§1) TP_TRANSPORTER: RT-PCR in vivo Wistar rat, liver
[2] = molecular target: ATP-dependent translocase ABCB1 (Rattus norvegicus, UniProt P43245); assay: as §1
Chain of ATP-dependent translocase ABCB1 (P43245 whole entry): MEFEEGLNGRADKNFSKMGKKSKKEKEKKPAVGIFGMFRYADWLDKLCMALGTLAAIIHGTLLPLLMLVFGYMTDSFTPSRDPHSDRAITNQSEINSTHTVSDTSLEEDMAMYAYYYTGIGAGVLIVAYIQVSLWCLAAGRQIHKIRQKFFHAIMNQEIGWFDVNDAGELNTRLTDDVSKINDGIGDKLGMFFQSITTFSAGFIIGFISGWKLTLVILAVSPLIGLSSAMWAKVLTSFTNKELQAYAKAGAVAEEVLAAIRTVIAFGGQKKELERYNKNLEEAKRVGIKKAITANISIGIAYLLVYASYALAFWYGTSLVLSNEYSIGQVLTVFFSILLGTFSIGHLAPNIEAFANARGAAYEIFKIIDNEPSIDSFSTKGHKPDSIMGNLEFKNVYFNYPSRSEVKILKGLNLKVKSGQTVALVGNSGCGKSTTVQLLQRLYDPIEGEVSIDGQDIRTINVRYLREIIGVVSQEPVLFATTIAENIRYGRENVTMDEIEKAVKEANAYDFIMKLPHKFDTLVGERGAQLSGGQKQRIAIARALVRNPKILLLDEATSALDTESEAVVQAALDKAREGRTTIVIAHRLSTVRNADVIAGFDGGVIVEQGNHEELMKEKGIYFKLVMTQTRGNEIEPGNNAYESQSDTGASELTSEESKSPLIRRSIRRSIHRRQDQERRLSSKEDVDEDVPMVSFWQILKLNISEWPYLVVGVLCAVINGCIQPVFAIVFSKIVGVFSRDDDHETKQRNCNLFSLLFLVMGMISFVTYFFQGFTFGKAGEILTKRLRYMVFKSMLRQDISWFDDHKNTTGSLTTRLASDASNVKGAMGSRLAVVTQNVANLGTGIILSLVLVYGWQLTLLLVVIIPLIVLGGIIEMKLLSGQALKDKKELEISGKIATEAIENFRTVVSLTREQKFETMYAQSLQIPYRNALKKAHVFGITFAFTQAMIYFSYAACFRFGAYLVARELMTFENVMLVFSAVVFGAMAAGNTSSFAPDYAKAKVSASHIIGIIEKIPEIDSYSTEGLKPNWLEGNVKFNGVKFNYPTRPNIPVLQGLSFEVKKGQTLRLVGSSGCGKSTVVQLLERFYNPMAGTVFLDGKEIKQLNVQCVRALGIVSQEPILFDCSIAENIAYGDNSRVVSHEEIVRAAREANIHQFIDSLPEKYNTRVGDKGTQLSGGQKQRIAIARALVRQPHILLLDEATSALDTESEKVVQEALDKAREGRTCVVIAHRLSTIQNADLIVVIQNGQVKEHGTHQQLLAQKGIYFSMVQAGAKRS

[3] = molecular target: Multidrug resistance protein 1a (Rattus norvegicus) (UniProt Q6PSM0); assay: TP_TRANSPORTER: Western in vivo Wistar rat, liver

Chain of Multidrug resistance protein 1a (Rattus norvegicus) (Q6PSM0 as listed by the source): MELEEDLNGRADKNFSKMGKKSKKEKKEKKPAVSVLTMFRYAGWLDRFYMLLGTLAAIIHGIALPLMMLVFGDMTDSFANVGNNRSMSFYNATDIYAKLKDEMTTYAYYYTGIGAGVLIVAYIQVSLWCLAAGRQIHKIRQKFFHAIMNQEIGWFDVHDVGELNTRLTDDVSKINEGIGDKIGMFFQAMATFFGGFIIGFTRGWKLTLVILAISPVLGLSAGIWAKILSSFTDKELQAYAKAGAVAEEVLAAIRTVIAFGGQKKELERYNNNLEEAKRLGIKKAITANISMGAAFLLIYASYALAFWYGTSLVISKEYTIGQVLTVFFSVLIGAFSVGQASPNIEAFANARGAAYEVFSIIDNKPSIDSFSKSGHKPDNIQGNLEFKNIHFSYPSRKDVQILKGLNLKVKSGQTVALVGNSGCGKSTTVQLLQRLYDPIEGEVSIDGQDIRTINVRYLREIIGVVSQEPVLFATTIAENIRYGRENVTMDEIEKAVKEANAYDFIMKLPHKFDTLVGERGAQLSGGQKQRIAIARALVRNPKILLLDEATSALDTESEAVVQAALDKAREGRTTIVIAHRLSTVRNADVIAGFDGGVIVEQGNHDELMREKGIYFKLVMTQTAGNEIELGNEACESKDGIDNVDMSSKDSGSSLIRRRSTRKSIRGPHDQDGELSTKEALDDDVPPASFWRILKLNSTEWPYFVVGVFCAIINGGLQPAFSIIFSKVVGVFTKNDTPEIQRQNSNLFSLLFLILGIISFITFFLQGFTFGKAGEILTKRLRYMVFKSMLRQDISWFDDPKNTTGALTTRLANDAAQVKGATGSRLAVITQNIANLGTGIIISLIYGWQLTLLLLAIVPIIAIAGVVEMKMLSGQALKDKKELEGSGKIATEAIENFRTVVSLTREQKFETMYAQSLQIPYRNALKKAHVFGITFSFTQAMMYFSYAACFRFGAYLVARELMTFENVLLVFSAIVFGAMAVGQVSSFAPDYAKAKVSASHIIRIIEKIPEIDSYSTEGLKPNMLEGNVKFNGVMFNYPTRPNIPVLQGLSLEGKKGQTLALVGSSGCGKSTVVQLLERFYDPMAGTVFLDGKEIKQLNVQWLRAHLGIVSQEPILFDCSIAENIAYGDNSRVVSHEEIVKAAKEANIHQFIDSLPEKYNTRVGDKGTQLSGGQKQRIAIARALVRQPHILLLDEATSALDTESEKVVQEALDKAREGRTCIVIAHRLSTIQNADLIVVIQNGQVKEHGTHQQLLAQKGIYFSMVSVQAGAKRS

**Q.** Which results are given for `CC(=O)Nc1ccc2c(c1)Cc1ccccc1-2` [2-ACETYLAMINOFLUORENE]?
**A.** Activity [1]: inducer [+]; Activity [2]: inducer [+]; Activity [3]: inducer [+]
